The record followed here is US12653873B2, “Peptide antigens and uses thereof” (HUMANITAS MIRASOLE S.P.A., priority 2019, dated 2026).

Format in all cases: in vivo, mouse
The test system of test [1] is C57BL6/J mice. As to the kind of experiment: Immunization of healthy mice with pooled peptides in CFA/IFA, echocardiography. The note with it: echocardiography at 2, 5 and 9 weeks after first subcutaneous injection; 100 μg of each peptide in CFA day 0, IFA boost day 21; vs CTR- (only CFA). The procedure: In order to validate the functional relevance of identified antigens recognized by T cells driving HF, the inventors conducted the experiments as described below and schematically represented in FIG. 5.
Briefly, C57BL6/J 8-week-old male mice were screened, via echocardiography, at baseline for heart functionality and randomly divided into three experimental groups. Mice belonging to the negative control group (CTR−, only CFA) were injected subcutaneously (immunized) with 100 μl Complete Freud's Adjuvant (CFA) at day 0 and boosted with 100 μl of Incomplete Freud's Adjuvant (IFA) on day 21, without any antigen. […] Heart functionality of all mice was analyzed via echocardiography at 2, 5 and 9 weeks after the first subcutaneous injection.
The immunization experiments of healthy mice with peptides derived from beta-adrenergic receptor and from 14-3-3, Snrpd1, and Atp5o lead to cardiac dysfunction. […] Left ventricle functionality was measured as % FS (FIG. 6A) and Ejection Fraction (% EF) (FIG. 6B), which measure the volumetric capacity of the left ventricle to pump blood. […]

Test [2] concerns TAC-operated mice. As to the kind of experiment: Oral tolerance protocol followed by induction of Heart Failure via TAC, echocardiography. The note with it: oral gavage 0.8 mg per day of each peptide for 4 days, TAC on day 7; 8 weeks after surgery; vs PBS alone. As to the method:
To assess preventive protection potential of oral tolerance with the newly identified peptides from the development of Heart Failure, the inventors pursued an oral tolerance protocol to induce cardio-specific tolerance for the peptides, followed by active induction of Heart Failure via TAC.
Briefly, C57BL6/J 8-week-old male mice were screened at baseline via echocardiography. Each mouse was orally fed with 0.8 mg of each peptide from group 4: the peptide of SEQ ID NO. 1 (14-3-3 protein), the peptide of SEQ ID NO. 5 (Snrpd1 protein), and the peptide of SEQ ID NO. 14 (Atp5o protein) (i.e. 0.8 mg per day of each peptide, thus 2.4 mg/day in total), diluted in 600 μl of Phosphate Buffered-Saline (PBS) or plain PBS (as control) via oral feeding (oral gavage) for 4 days in a row. Three days after the end of this procedure, on day 7, the mice underwent TAC surgery, to experimentally induce Heart Failure. Echocardiographies were performed on both groups of mice to monitor their cardiac functionality at 2, 4 and 8 weeks after TAC-surgery. […] Data were plotted as mean±SEM, (n=8-11). Two-way ANOVA and Tukey's multiple comparison test with matching subjects. ** p<0.01, ***p<0.001.

The subject of test [3] is Aldehyde dehydrogenase (ALDH). The test is described as follows: Aldefluor FACS analysis of dendritic cells from mesenteric lymph nodes after oral tolerance induction. The note with it: eight weeks after oral tolerance induction in TAC-operated mice; vs PBS alone. The procedure:
Briefly, eight weeks after oral tolerance induction in TAC-operated mice, mesenteric lymph nodes (MLN) were collected and dendritic cells (DC) were isolated for FACS analysis. Aldehyde dehydrogenase (ALDH) production of retinoic acid from the DC was measured via Aldefluor Fluorescent dye. FACS analysis of DC isolated from MLN of mice fed with the peptides of SEQ ID NO. […] Retinoic acid produced by tolerogenic DC contributes to Regulatory T cell (Treg) generation, essential for tolerance induction. […] Data are plotted as mean±SEM, (n=7-8). Unpaired t-test. * p<0.05.
(In general: Flow cytometry measures light scatter and fluorescence of single cells or particles in a stream.)

Test [4] deals with C57BL6/J mice. As to the kind of experiment: Immunization of healthy mice with single peptides in CFA/IFA, echocardiography. The conditions noted are these: echocardiography at 2, 5 and 9 weeks after first subcutaneous injection; 100 μg peptide in CFA day 0, IFA boost day 21; vs CTR-. The procedure:
C57BL6/J 8-week-old male mice were screened at baseline for heart functionality, via echocardiography, and randomly divided into 5 experimental groups. Mice belonging to control group (CTR−, only CFA) were injected subcutaneously (immunized, but without antigen: negative control) with 100 μl Complete Freud's Adjuvant (CFA) at day 0 and boosted with 100 μl of Incomplete Freud's Adjuvant (IFA) on day 21. Mice belonging to group 3 (CTR+) were injected subcutaneously (immunized, known antigen: positive control) with 100 μg of each of the three peptides (SEQ ID NOs. 15-17) derived from beta-adrenergic receptor and listed in the Table of FIG. 4, emulsified in Complete Freud's Adjuvant (CFA) at day 0 and boosted with 100 μg of the three peptides emulsified in Incomplete Freud's Adjuvant (IFA) on day 21. Mice belonging to group 4_A (Peptide 4_A) were injected subcutaneously (immunized) with 100 μg of the peptide of SEQ ID NO. 1, derived from 14-3-3 protein, emulsified in Complete Freud's Adjuvant (CFA) at day 0 and boosted with 100 μg of each of the three peptides emulsified in Incomplete Freud's Adjuvant (IFA) on day 21. Mice belonging to group 4_B (Peptide 4_B) were injected subcutaneously (immunized) with 100 μg of the peptide of SEQ ID NO. 5, derived from Snrpd1 protein, emulsified in Complete Freud's Adjuvant (CFA) at day 0 and boosted with 100 μg of each of the three peptides emulsified in Incomplete Freud's Adjuvant (IFA) on day 21. Mice belonging to group 4_C (Peptide 4_C) were injected subcutaneously (immunized) with 100 μg of the peptide of SEQ ID NO. 14, derived from Atp5o protein, emulsified in Complete Freud's Adjuvant (CFA) at day 0 and boosted with […] of each of the three peptides emulsified in Incomplete Freud's Adjuvant (IFA) on day 21. On day 0 and day 2, all the mice were intraperitoneally injected with 200 ng of Pertussis Toxin. Heart functionality of all mice was analyzed via echocardiography at 2, 5 and 9 weeks after the first subcutaneous injection. In FIG. 7, the results of echocardiography analysis of cardiac functionality parameters % FS and % EF of C57BL6/J mice immunized with the peptide of SEQ ID NO. 1 (14-3-3 protein), the peptide of SEQ ID NO. 5 (Snrpd1 protein), or the peptide of SEQ ID NO. 14 (Atp5o protein) are shown. […] Data are plotted as mean±SEM, (n=4-6). Two-way ANOVA and Tukey's multiple comparison test with matching subjects. * p<0.05, ** p<0.01, ***p<0.001.

Consider “Group 4: combination of the three peptides of SEQ ID NOs. 1, 5 and 14, derived from murine 14-3-3, Snrpd1 and Atp5o proteins (chain 1 LGLALNFSVFYYEIL; chain 2 EPVQLETLSIRGNNIRYFILPDSLP; chain 3 LTANLMNLLAENGRL; listed as Homo sapiens, listed as Mus musculus)”, for which, in test [1], the “cardiac functionality, % FS” value was “significant reduction of cardiac functionality” and the “cardiac functionality, Ejection Fraction (% EF)” value was “significant reduction of cardiac functionality”. Besides, in test [2], the “cardiac functionality, % EF” value is “significantly better cardiac functionality” and the “cardiac functionality, % FS” value is “significantly better cardiac functionality”. Also, in test [3], the “ALDH activity of DC isolated from MLN” value is “significant increase in ALDH activity”, the “mean fluorescence intensity (MFI) of Aldefluor dye in DC” value is “significant increase” and the “percentage of ALDH positive DC” value is listed as “significant increase”.
In the case of “Peptide 4_A: peptide of SEQ ID NO. 1, derived from 14-3-3 protein (LGLALNFSVFYYEIL; listed as Homo sapiens)”, in test [4], the “% EF” value was “significantly reduced” and the “% FS” value is “significantly reduced”.
On to “Peptide 4_B: peptide of SEQ ID NO. 5, derived from Snrpd1 protein (EPVQLETLSIRGNNIRYFILPDSLP; listed as Homo sapiens)”, for which, in test [4], the “% EF” value is on record as “significantly reduced” and the “% FS” value is recorded as “significantly reduced”.
For the substance “Peptide 4_C: peptide of SEQ ID NO. 14, derived from mouse Atp5o protein (LTANLMNLLAENGRL; listed as Mus musculus)”, in test [4], the “% EF” value is given as “significantly reduced” and the “% FS” value is “significantly reduced”.
